In PubChem BioAssay AID2060891 (Molecular Pharmacology Branch, DTP, NCI, 2025):
One block for each molecule: values may come before it.

Tested on: K98450-129-R-PDC complex spheroid growth, percent test/control
Assay: Anticancer human tumor K98450-129-R-PDC patient-derived colon adenocarcinoma cell line growth inhibition [RAS]
Conditions: for IC50: curve of first compound; for viability, T/C: stronger effect = lower value
Method in brief: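 Agents were tested in combination matrices in half-log decrements from a top concentration at or near clinical Cmax (10 microM if undetermined). Targets were multi-cell spheroids of tumour lines plus HUVEC and MSC stromal cells.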

[1] = second compound 0.00316 µM, first compound 0.00316 µM
[2] = second compound 0.00316 µM, first compound 0.01 µM
[3] = second compound 0.00316 µM, first compound 0.0316 µM
[4] = second compound 0.00316 µM, first compound 0.1 µM
[5] = second compound 0.01 µM, first compound 0.00316 µM
[6] = second compound 0.01 µM, first compound 0.01 µM
[7] = second compound 0.01 µM, first compound 0.0316 µM
[8] = second compound 0.01 µM, first compound 0.1 µM
[9] = second compound 0.0316 µM, first compound 0.00316 µM
[10] = second compound 0.0316 µM, first compound 0.01 µM
[11] = second compound 0.0316 µM, first compound 0.0316 µM
[12] = second compound 0.0316 µM, first compound 0.1 µM
[13] = second compound 0.1 µM, first compound 0.00316 µM
[14] = second compound 0.1 µM, first compound 0.01 µM
[15] = second compound 0.1 µM, first compound 0.0316 µM
[16] = second compound 0.1 µM, first compound 0.1 µM
[17] = second compound 0.316 µM, first compound 0.00316 µM
[18] = second compound 0.316 µM, first compound 0.01 µM
[19] = second compound 0.316 µM, first compound 0.0316 µM
[20] = second compound 0.316 µM, first compound 0.1 µM
[21] = second compound 1 µM, first compound 0.00316 µM
[22] = second compound 1 µM, first compound 0.01 µM
[23] = second compound 1 µM, first compound 0.0316 µM
[24] = second compound 1 µM, first compound 0.1 µM
[25] = second compound 0.00316 µM, first compound 0.316 µM
[26] = second compound 0.00316 µM, first compound 1 µM
[27] = second compound 0.01 µM, first compound 0.316 µM
[28] = second compound 0.01 µM, first compound 1 µM
[29] = second compound 0.0316 µM, first compound 0.316 µM
[30] = second compound 0.0316 µM, first compound 1 µM
[31] = second compound 0.1 µM, first compound 0.316 µM
[32] = second compound 0.1 µM, first compound 1 µM
[33] = second compound 0.316 µM, first compound 0.316 µM
[34] = second compound 0.316 µM, first compound 1 µM
[35] = second compound 1 µM, first compound 0.316 µM
[36] = second compound 1 µM, first compound 1 µM
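Also: spheroids exposed to agents for seven days before the viability readout.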
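For viability, T/C in this document: luminescence used as a proxy for viable cell amount.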

IC50 (second compound 0.00316 µM): > 100 nM
IC50 (second compound 0.01 µM): > 100 nM
IC50 (second compound 0.0316 µM): 17.8 nM
IC50 (second compound 0.1 µM): 1.5 nM
IC50 (second compound 0.316 µM): < 0.316 nM
IC50 (second compound 1 µM): < 0.316 nM
Structure (SMILES): CC(C)n1nc(-c2ccc3oc(N)nc3c2)c2c(N)ncnc21 + C=CC(=O)N1CCN(c2nc(OCC3CCCN3C)nc3c(F)c(-c4nc(N)cc(C)c4C(F)(F)F)c(Cl)cc23)C(C)C1
viability, T/C (second compound 0.00316 µM, first compound 0.000316 µM): 90.9%
viability, T/C (second compound 0.00316 µM, first compound 0.001 µM): 85.2%
viability, T/C [1]: 87.9%
viability, T/C [2]: 82.4%
viability, T/C [3]: 76.5%
viability, T/C [4]: 56.9%
viability, T/C (second compound 0.01 µM, first compound 0.000316 µM): 75.9%
viability, T/C (second compound 0.01 µM, first compound 0.001 µM): 78.9%
viability, T/C [5]: 75%
viability, T/C [6]: 70%
viability, T/C [7]: 61.2%
viability, T/C [8]: 51.6%
viability, T/C (second compound 0.0316 µM, first compound 0.000316 µM): 70.2%
viability, T/C (second compound 0.0316 µM, first compound 0.001 µM): 58.8%
viability, T/C [9]: 62.3%
viability, T/C [10]: 52.3%
viability, T/C [11]: 47.1%
viability, T/C [12]: 40.5%
viability, T/C (second compound 0.1 µM, first compound 0.000316 µM): 54.7%
viability, T/C (second compound 0.1 µM, first compound 0.001 µM): 51%
viability, T/C [13]: 46.1%
viability, T/C [14]: 44.3%
viability, T/C [15]: 33.9%
viability, T/C [16]: 27.2%
viability, T/C (second compound 0.316 µM, first compound 0.000316 µM): 38.8%
viability, T/C (second compound 0.316 µM, first compound 0.001 µM): 37%
viability, T/C [17]: 33.1%
viability, T/C [18]: 30.9%
viability, T/C [19]: 25.7%
viability, T/C [20]: 20.1%
viability, T/C (second compound 1 µM, first compound 0.000316 µM): 29.1%
viability, T/C (second compound 1 µM, first compound 0.001 µM): 27.5%
viability, T/C [21]: 33.5%
viability, T/C [22]: 25%
viability, T/C [23]: 21.4%
viability, T/C [24]: 17.6%

IC50 (second compound 0.00316 µM): > 10000 nM
IC50 (second compound 0.01 µM): > 10000 nM
IC50 (second compound 0.0316 µM): 4560 nM
IC50 (second compound 0.1 µM): 73.8 nM
IC50 (second compound 0.316 µM): < 31.6 nM
IC50 (second compound 1 µM): < 31.6 nM
Structure (SMILES): CC(Nc1ccc2c(c1)OCCn1cc(N3C(=O)OCC3C(F)F)nc1-2)C(N)=O (stereo unspecified) + C=CC(=O)N1CCN(c2nc(OCC3CCCN3C)nc3c(F)c(-c4nc(N)cc(C)c4C(F)(F)F)c(Cl)cc23)C(C)C1
viability, T/C [3]: 92.5%
viability, T/C [4]: 90.4%
viability, T/C [25]: 81.7%
viability, T/C [26]: 83.1%
viability, T/C (second compound 0.00316 µM, first compound 3.16 µM): 70%
viability, T/C (second compound 0.00316 µM, first compound 10 µM): 64.3%
viability, T/C [7]: 85.4%
viability, T/C [8]: 81.2%
viability, T/C [27]: 78.5%
viability, T/C [28]: 65.1%
viability, T/C (second compound 0.01 µM, first compound 3.16 µM): 59.8%
viability, T/C (second compound 0.01 µM, first compound 10 µM): 53.8%
viability, T/C [11]: 69.5%
viability, T/C [12]: 70.3%
viability, T/C [29]: 62.7%
viability, T/C [30]: 51.4%
viability, T/C (second compound 0.0316 µM, first compound 3.16 µM): 53.7%
viability, T/C (second compound 0.0316 µM, first compound 10 µM): 46.9%
viability, T/C [15]: 53.9%
viability, T/C [16]: 47.4%
viability, T/C [31]: 45%
viability, T/C [32]: 39%
viability, T/C (second compound 0.1 µM, first compound 3.16 µM): 32.5%
viability, T/C (second compound 0.1 µM, first compound 10 µM): 28.8%
viability, T/C [19]: 35.4%
viability, T/C [20]: 32.5%
viability, T/C [33]: 31.6%
viability, T/C [34]: 22.4%
viability, T/C (second compound 0.316 µM, first compound 3.16 µM): 22.9%
viability, T/C (second compound 0.316 µM, first compound 10 µM): 16.6%
viability, T/C [23]: 28.4%
viability, T/C [24]: 28.2%
viability, T/C [35]: 23.5%
viability, T/C [36]: 18%
viability, T/C (second compound 1 µM, first compound 3.16 µM): 15.3%
viability, T/C (second compound 1 µM, first compound 10 µM): 14.5%

IC50 (second compound 0.00316 µM): 165 nM
IC50 (second compound 0.01 µM): 132 nM
IC50 (second compound 0.0316 µM): 106 nM
IC50 (second compound 0.1 µM): 8.9 nM
IC50 (second compound 0.316 µM): < 3.16 nM
IC50 (second compound 1 µM): < 3.16 nM
Structure (SMILES): O=C(c1ccc(F)c(F)c1Nc1ccc(I)cc1F)N1CC(O)([C@@H]2CCCCN2)C1 + C=CC(=O)N1CCN(c2nc(OCC3CCCN3C)nc3c(F)c(-c4nc(N)cc(C)c4C(F)(F)F)c(Cl)cc23)C(C)C1
viability, T/C [1]: 91.1%
viability, T/C [2]: 96.7%
viability, T/C [3]: 87.9%
viability, T/C [4]: 78.3%
viability, T/C [25]: 13.7%
viability, T/C [26]: 2.87%
viability, T/C [5]: 86.3%
viability, T/C [6]: 77.6%
viability, T/C [7]: 81.8%
viability, T/C [8]: 63.1%
viability, T/C [27]: 9.42%
viability, T/C [28]: 3.09%
viability, T/C [9]: 72.8%
viability, T/C [10]: 64.5%
viability, T/C [11]: 63.2%
viability, T/C [12]: 52.5%
viability, T/C [29]: 7.27%
viability, T/C [30]: 2.63%
viability, T/C [13]: 55.2%
viability, T/C [14]: 47.6%
viability, T/C [15]: 39%
viability, T/C [16]: 22.6%
viability, T/C [31]: 5.51%
viability, T/C [32]: 2.39%
viability, T/C [17]: 34.2%
viability, T/C [18]: 34.2%
viability, T/C [19]: 21.5%
viability, T/C [20]: 10.9%
viability, T/C [33]: 4.66%
viability, T/C [34]: 2.41%
viability, T/C [21]: 27.9%
viability, T/C [22]: 24.1%
viability, T/C [23]: 16.3%
viability, T/C [24]: 9.12%
viability, T/C [35]: 5%
viability, T/C [36]: 2.46%
